One test deals with bromegrass, down. Put plainly: Test D preemergence. The following applies: for Plant response rating (0 to 100), Bromegrass, Down: 16 g ai/ha, 0 is no effect, 100 is complete control; for Plant response rating: Bromegrass, Down: scale 0 to 100. It is filed as in vivo, Bromus tectorum. The source says: (§1) Seeds of plant species selected from bluegrass (annual bluegrass, Poa annua), blackgrass (Alopecurus myosuroides), canarygrass (Phalaris minor), chickweed (common chickweed, Stellaria media), galium (catchweed bedstraw, Galium aparine), bromegrass, down (downy bromegrass, Bromus tectorum), Russian thistle (Salsola kali), field poppy (Papaver rhoeas), field violet (Viola arvensis), foxtail, green (green foxtail, Setaria viridis), deadnettle (henbit deadnettle, Lamium amplexicaule), ryegrass, Ital. (Italian ryegrass, Lolium multiflorum), kochia (Kochia scoparia), lambsquarters (Chenopodium album), oilseed rape (Brassica napus), pigweed (Amaranthus retroflexus), chamomile (scentless chamomile, Matricaria inodora), speedwell (bird's-eye speedwell, Veronica persica), barley, spring (spring barley, Hordeum vulgare), wheat, spring (spring wheat, Triticum aestivum), buckwheat, wild (wild buckwheat, Polygonum convolvulus), wild mustard (Sinapis arvensis), oat, wild (wild oat, Avena fatua), radish, wild (wild radish, Raphanus raphanistrum), […]), barley, winter (winter barley, Hordeum vulgare), and wheat, winter (winter wheat, Triticum aestivum) were planted into a silt loam soil and treated preemergence with test chemicals formulated in a non-phytotoxic solvent mixture which included a surfactant. At the same time, these species were planted in pots containing Sunshine Redi-Earth® planting medium comprising spaghnum peat moss, vermiculite, starter nutrients and dolomitic limestone and treated with postemergence applications of the test chemicals formulated in the same manner. Plants ranged in height from 2 to 18 cm (1- to 4-leaf stage). Treated plants and controls were maintained in a controlled growth environment for 14 to 21 d after which time all species were compared to controls and visually evaluated. […] A dash (-) response means no test result.

For a further test, the system named is nutsedge, yellow. Briefly: Test C preemergence. Conditions: for Plant response rating (scale of 0 to 100 where 0 is no effect and 100 is complete control): Nutsedge, Yellow, preemergence; for Nutsedge, Yellow plant response rating (0 to 100): Preemergence, visual rating after 13 to 15 d. It is filed as in vivo, Cyperus esculentus. The source says:
(§2) Seeds of plant species selected from blackgrass (Alopecurus myosuroides), ryegrass, Italian (Italian ryegrass, Lolium multiflorum), wheat (winter wheat, Triticum aestivum), galium (catchweed bedstraw, Galium aparine), corn (Zea mays), crabgrass, large (large crabgrass, Digitaria sanguinalis), foxtail, giant, (giant foxtail, Setaria faberii), johnsongrass (Sorghum halepense), lambsquarters (Chenopodium album), morningglory (Ipomoea coccinea), nutsedge, yellow (yellow nutsedge, Cyperus esculentus), pigweed (Amaranthus retroflexus), ragweed (common ragweed, Ambrosia elatior), soybean (Glycine max), barnyardgrass (Echinochloa crus-galli), oilseed rape (Brassica napus), waterhemp (common waterhemp, Amaranthus rudis), and velvetleaf (Abutilon theophrasti) were planted into a blend of loam soil and sand and treated preemergence with test chemicals formulated in a non-phytotoxic solvent mixture which included a surfactant. At the same time, plants selected from these crop and weed species and also chickweed (common chickweed, Stellaria media), oat, wild (wild oat, Avena fatua), and kochia (Kochia scoparia), were planted in pots containing Sunshine Redi-Earth® planting medium comprising spaghnum peat moss, vermiculite, starter nutrients and dolomitic limestone and treated with postemergence applications of test chemicals formulated in the same manner. Plants ranged in height from 2 to 18 cm (1- to 4-leaf stage) for postemergence treatments. […] A dash (-) response means no test result.

The next test relates to windgrass. Put plainly: Test D postemergence. It is filed as in vivo, Apera spica-venti. Conditions: scale 0 to 100.
From the text: as §1

The next test relates to blackgrass. Put plainly: Test A postemergence. It is filed as in vivo, Alopecurus myosuroides. The following applies: 0 to 100 scale (0 no effect, 100 complete control), approx. 10 d. In outline:
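Visual injury score, 0 (no effect) to 100 (complete control), taken about 10 d after treatment against untreated greenhouse controls. Chemicals formulated in non-phytotoxic solvent plus surfactant; preemergence by directed soil spray onto sown loam/sand, postemergence onto one- to two-leaf plants.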

The next test concerns radish, wild. Briefly: Test D preemergence. The following applies: for Plant response rating: Radish, Wild: scale 0 to 100. It is filed as in vivo, Raphanus raphanistrum.
From the text: as §1

The subject of another test is field poppy. Briefly: Test D preemergence. Conditions: for Plant response rating (0 to 100), Field Poppy: 16 g ai/ha, 0 is no effect, 100 is complete control; for Plant response rating: Field Poppy: scale 0 to 100. It is filed as in vivo, Papaver rhoeas.
From the text: as §1

A further test has as its system waterhemp. Briefly: Test C preemergence. It is filed as in vivo, Amaranthus rudis. Conditions: for Waterhemp plant response rating (0 to 100): Preemergence, visual rating after 13 to 15 d; for Plant response rating (scale of 0 to 100 where 0 is no effect and 100 is complete control): Waterhemp, preemergence, 250 g ai/ha.
From the text: as §2

The next test deals with crabgrass, large. Put plainly: Test A postemergence. It is filed as in vivo, Digitaria sanguinalis. Conditions: Digitaria sanguinalis, post-emergence, 240 h, 0 to 100 scale (0 no effect, 100 complete control), approx. 10 d, read-out: Plant response rating, Crabgrass, Large; for pest or weed control at 125 g/ha: 125 g ai/ha; for pest or weed control at 500 g/ha: 500 g ai/ha. In outline:
(§3)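 Plant seeds in loam soil blended with sand, then apply test chemical preemergence as a directed soil spray; in parallel, spray potted seedlings (one- to two-leaf, 2 to 10 cm) postemergence. Both treatments use a non-phytotoxic solvent mixture with surfactant.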

For the next test, the system named is velvetleaf. Put plainly: Test A postemergence. It is filed as in vivo, Abutilon theophrasti. Conditions: Abutilon theophrasti, post-emergence, 240 h, 0 to 100 scale (0 no effect, 100 complete control), approx. 10 d, read-out: Plant response rating, Velvetleaf; for pest or weed control at 125 g/ha: 125 g ai/ha; for pest or weed control at 500 g/ha: 500 g ai/ha. A digest of the protocol: as §3

With `FC(F)(F)COc1nc(-c2ccccc2)nn1Cc1ccnc(C(F)(F)F)c1` [Compound 24], the “Plant response rating (0 to 100), Bromegrass, Down” value in the test on bromegrass, down was 25. Also, the “Plant response rating: Bromegrass, Down” value is reported as 40 in the test on bromegrass, down (31 g ai/ha); 35 in the test with bromegrass, down (62 g ai/ha); 40 in the test on bromegrass, down (125 g ai/ha). Further, the “Plant response rating (scale of 0 to 100 where 0 is no effect and 100 is complete control)” value was found to be 5 with nutsedge, yellow (125 g ai/ha); 15 in the test on nutsedge, yellow (250 g ai/ha); 100 in the test on waterhemp. Also, the “Nutsedge, Yellow plant response rating (0 to 100)” value (“Nutsedge … (0 to 100)” below) with nutsedge, yellow (31 g ai/ha) came to 0; in the test with nutsedge, yellow (62 g ai/ha), 0. Also, the “Plant response rating: Windgrass” value in the test on windgrass (16 g ai/ha) is listed as 20; in the test with windgrass (31 g ai/ha), 35; in the test on windgrass (62 g ai/ha) it was 45; in the test on windgrass (125 g ai/ha) it was 60. In addition, the “Plant response rating, Blackgrass” value with blackgrass (125 g ai/ha) was determined as 40; in the test on blackgrass (500 g ai/ha) it was 60. The “Plant response rating (0 to 100), Radish, Wild” value with radish, wild (16 g ai/ha, 0 is no effect, 100 is complete control) was 45. Moreover, the “Plant response rating: Radish, Wild” value is on record as 75 in the test on radish, wild (62 g ai/ha) and 100 in the test on radish, wild (125 g ai/ha). The “Plant response rating (0 to 100), Field Poppy” value in the test on field poppy was determined as 95. Further, the “Plant response rating: Field Poppy” value with field poppy (62 g ai/ha) and with field poppy (125 g ai/ha) was 100 each time. Also, the “Waterhemp plant response rating (0 to 100)” value in the test with waterhemp (31 g ai/ha) and with waterhemp (62 g ai/ha) was 100 in each case.

With `COc1nc(-c2ccc(Cl)cc2)nn1Cc1ccnc(C(F)(F)F)c1` [Compound 28], the “Plant response rating (0 to 100), Bromegrass, Down” value with bromegrass, down is 35. Moreover, the “Plant response rating: Bromegrass, Down” value with bromegrass, down (31 g ai/ha) turned out to be 40; in the test on bromegrass, down (62 g ai/ha), 45; in the test on bromegrass, down (125 g ai/ha), 45. Further, the “Plant response rating: Windgrass” value in the test on windgrass (16 g ai/ha) amounted to 25; in the test with windgrass (31 g ai/ha) it was 25; in the test on windgrass (62 g ai/ha), 45; with windgrass (125 g ai/ha) it was 45. In addition, the figures for the “Plant response rating, Blackgrass” value in the test with blackgrass (125 g ai/ha) and in the test on blackgrass (500 g ai/ha) were 10 and 40, respectively. Besides, the “Plant response rating: Radish, Wild” value is given as 60 in the test with radish, wild (62 g ai/ha) and 80 in the test with radish, wild (125 g ai/ha). Moreover, in the test on field poppy, the “Plant response rating (0 to 100), Field Poppy” value came out at 70. Besides, the “Plant response rating: Field Poppy” value in the test with field poppy (62 g ai/ha) and with field poppy (125 g ai/ha) was 100 throughout.

With `CCOc1nc(-c2ccc(F)cc2)nn1Cc1ccnc(C(F)(F)F)c1` [Compound 8, 4-[[5-ethoxy-3-(4-fluorophenyl)-1H-1,2,4-triazol-1-yl]methyl]-2-(trifluoromethyl)pyridine], the “Plant response rating: Bromegrass, Down” value with bromegrass, down (31 g ai/ha) is on record as 10; with bromegrass, down (62 g ai/ha), 35; in the test with bromegrass, down (125 g ai/ha), 100; in the test with bromegrass, down (250 g ai/ha), 100. Further, the “Plant response rating (scale of 0 to 100 where 0 is no effect and 100 is complete control)” value in the test on nutsedge, yellow (125 g ai/ha) is 55; in the test on nutsedge, yellow (250 g ai/ha), 80; with waterhemp, 100. In addition, the “Nutsedge … (0 to 100)” value in the test on nutsedge, yellow (31 g ai/ha) worked out at 10; in the test on nutsedge, yellow (62 g ai/ha), 40. The pest or weed control at 125 g/ha was 100% in the test with crabgrass, large and 90% in the test on velvetleaf. In addition, the pest or weed control at 500 g/ha stood at 100% in the test on crabgrass, large and 100% with velvetleaf. For the same molecule, the “Plant response rating: Windgrass” value turned out to be 40 in the test with windgrass (31 g ai/ha), 60 in the test with windgrass (62 g ai/ha), 75 in the test with windgrass (125 g ai/ha) and 85 with windgrass (250 g ai/ha). Also, the “Plant response rating: Radish, Wild” value in the test with radish, wild (62 g ai/ha) was 60; in the test with radish, wild (125 g ai/ha), 100; in the test on radish, wild (250 g ai/ha), 100. The “Plant response rating: Field Poppy” value in the test on field poppy (62 g ai/ha), in the test on field poppy (125 g ai/ha) and in the test with field poppy (250 g ai/ha) was 100 in each case. Also, the figures for the “Waterhemp plant response rating (0 to 100)” value with waterhemp (31 g ai/ha) and in the test on waterhemp (62 g ai/ha) were 98 and 100, respectively.

Regarding `CCc1nc(-c2ccc(C(F)(F)F)cc2)nn1Cc1ccnc(C(F)(F)F)c1` [Compound 1, 4-[[5-ethyl-3-[4-(trifluoromethyl)phenyl]-1H-1,2,4-triazol-1-yl]methyl]-2-(trifluoromethyl)pyridine], the “Plant response rating: Bromegrass, Down” value with bromegrass, down (31 g ai/ha) was found to be 0; with bromegrass, down (62 g ai/ha), 0; in the test with bromegrass, down (125 g ai/ha), 10; in the test on bromegrass, down (250 g ai/ha), 10. In addition, the “Plant response rating (scale of 0 to 100 where 0 is no effect and 100 is complete control)” value in the test with nutsedge, yellow (250 g ai/ha) was 15. Besides, the “Nutsedge … (0 to 100)” value in the test with nutsedge, yellow (31 g ai/ha) is 0; in the test on nutsedge, yellow (62 g ai/ha), 5. The pest or weed control at 125 g/ha with crabgrass, large stood at 100%; in the test on velvetleaf, 90%. Also, the pest or weed control at 500 g/ha amounted to 100% in the test on crabgrass, large and 100% in the test on velvetleaf. Moreover, the “Plant response rating: Windgrass” value in the test with windgrass (31 g ai/ha) turned out to be 15; in the test on windgrass (62 g ai/ha), 20; in the test with windgrass (125 g ai/ha), 30; with windgrass (250 g ai/ha), 60. Moreover, the “Plant response rating: Radish, Wild” value in the test with radish, wild (62 g ai/ha) stood at 100; with radish, wild (125 g ai/ha), 100; in the test with radish, wild (250 g ai/ha) it was 100. The “Plant response rating: Field Poppy” value in the test with field poppy (62 g ai/ha), in the test on field poppy (125 g ai/ha) and with field poppy (250 g ai/ha) was 100 throughout.

Source of the values: patent publication US10681909B2, “Herbicidal triazoles” (FMC Corporation, priority 2014, dated 2020).
